{"source": "patent US12515170B2", "about": "“CO2 capture and utilization system and method” (University of Kentucky Research Foundation, priority 2021, dated 2026)", "key": {"Scenedesmus acutus [1]": {"tested_on": "Scenedesmus acutus", "conditions": "same molar N concentration; 3% CO2; 21 days; n=3", "protocol": "In parallel, an experiment was performed using urea as a control (FIG. 13, tubes 1-3).\nExperiments were conducted in a temperature controlled (20-27° C.) 10 L tubular photobioreactor system (FIG. 13). An artificial light system set to a 16:8 light/dark cycle (T5 cool white fluorescent bulbs) delivered 500 micromole m^−2 s^−1 PAR of photoactive radiation. CO2 was delivered as 3% CO2/nitrogen balance from gas cylinders. The experiments ran for 21 days.\nThree times a week pH, UV-vis absorbance and dry mass measurements were made."}, "Scenedesmus acutus [2]": {"tested_on": "Scenedesmus acutus", "assay": "Algae production in 800 mL bioreactors with different nitrogen sources / CO2:NH3 mole ratios", "format": "cell-based", "conditions": "constant gas sparging, nitrogen source compared, no unit in Table 8 (FIG. 33: productivity g/L/day)", "protocol": "To Examine the effect CO2:NH3 mole ratios on Scenedesmus acutus culture health and productivity, experiments were conducted in 800 mL bioreactors with constant gas sparging and different CO2:NH3 mole ratios (ranging from 7:1 up to 18:1) (FIG. 33). The “cycles” indicated in FIG. 33 refer to growth cycles of algae. In this regard, each bioreactor is normally inoculated with algae at a low concentration (e.g., 0.1 g/LO and the algae are allowed to grow until a concentration of 1 g/L is obtained. At this point, the algae are harvested until a concentration of 0.1 g/L is left in the bioreactor (with the addition of fresh nutrients and water). The algae are allowed to grow again until a concentration of 1 g/L is again reached, followed by harvesting. Each period of growth up to harvesting is characterized as a growth cycle."}}, "data": [{"smiles": "N.N.O=C(O)O", "note": "[(NH4)2CO3, ammonium carbonate]", "values": [{"measurement": "algae growth rates by dry mass measurements versus urea control", "setting": "Scenedesmus acutus [1]", "value": "significantly higher than for the control"}, {"measurement": "culture productivity by UV-vis absorbance at 560 nm versus urea control", "setting": "Scenedesmus acutus [1]", "value": "significantly more productive than the control"}]}, {"smiles": "O=[N+]([O-])[O-].[Na+]", "note": "[NaNO3]", "values": [{"measurement": "growth rate", "setting": "Scenedesmus acutus [2]", "value": "0.13 ± 0.05"}]}, {"smiles": "NC(N)=O", "note": "[Urea, urea]", "values": [{"measurement": "growth rate", "setting": "Scenedesmus acutus [2]", "value": "0.11 ± 0.04"}]}]}
